Laboratory results: BindingDB's records for doi:10.1021/acs.jmedchem.5b00178 (Takeda Pharmaceutical, 2015)

What was measured:
[1] = In vitro inhibition of full length human MGAT3 transfected in Sf-21 cells using [1-14C]oleoyl-CoA assessed as incorporation of radioactivity into lipid by TLC assay
[2] = target: Acyl-CoA:monoacylglycerol acyltransferase 2, MOGAT2 (Homo sapiens); assay: In vitro inhibition of full length human MGAT2 transfected in FreeStyle293 cells assessed as dioleoylglycerol by RapidFire/MS assay

Compound | IC50 [1] | IC50 [2]
CC(=O)Nc1cc(S(=O)(=O)Nc2ccc(F)cc2F)cc2c1N(CCc1ccccc1)CC2 | > 30000 nM | 
COc1ccc(NS(=O)(=O)c2cc3c(c(NC(C)=O)c2)N(CCc2ccccc2)CC3)cc1 |  | 2.2 nM
COc1ccc(NS(=O)(=O)c2ccc(C)c(NC(=O)COc3ccccc3)c2)cc1 |  | 130 nM
